Test results as given in patent US20180022711A1, “NOVEL CRYSTAL FORMS OF THE MONOSODIUM SALT OF FORAMSULFURON” (BAYER CROPSCIENCE AKTIENGESELLSCHAFT, priority 2014, published 2018).
“Also recorded” adds a separate entry of the source.

Columns and labels:
Assay type in all cases: physicochemical
[1] = Storage of methanol-moist crystal form A and conversion into crystal form C
Method: In separate containers, 5 g each of crystal form A were each stirred with 20 g of MeOH and subsequently filtered off.
At 20° C., 30° C. and 35° C., the moistened products were stored for one week and a sample taken daily. These samples were dried at 65° C. and 100 mbar and the respective methanol content subsequently determined.
Already after 2 days (35° C.), 3 days (30° C.) and 7 days (20° C.), crystal form A had converted practically completely into crystal form C (MeOH content about 6.4% by weight).

[2] = Hygroscopicity: open storage over water for one week at 25° C., water content by Karl Fischer titration; conditions: for Water content of the sample after storage: one week at 25° C. in sealed beaker over water, Karl Fischer titration
Method: 100 mg each of crystal forms A, B and C were separately filled into small glass vials with snap-on caps. These three glass vials with snap-on caps were placed unsealed in a glass beaker of which the bottom was covered with a small amount of water. The glass beaker was then sealed with a reversible sealing film and stored for one week at 25° C. After this storage period, the water content of the respective sample was determined by Karl Fischer titration.

[3] = Stability test of crystal form B in methanol; conditions: suspended in methanol, stirred 7 days at 30° C., filtered and dried
Method: 10 g of crystal form B (MeOH content<0.01%) were suspended in 100 g of methanol and stirred for 7 days at 30° C. The product was filtered and then dried overnight at 70° C. and a pressure<100 mbar. 9.1 g of a 99.4% strength product were obtained. The methanol content in the product obtained was 0.004% by weight and the acetone content was 0.0003% by weight.

[4] = Sorption/desorption curve, isothermal at 25° C.; conditions: for Desorption (% by weight) / Sorption (% by weight): 25° C.
Method: Sorption and desorption curves of crystal form B were measured isothermically at 25° C. The sorption curve gives the water uptake at increasing relative humidity and the desorption curve gives the drying behaviour on moisture reduction.

COc1cc(OC)nc(NC(=O)NS(=O)(=O)c2cc(NC=O)ccc2C(=O)N(C)C)n1.[Na] [Crystal form A, reference compound]
Time until practically complete conversion into crystal form C ([1]; stored at 20° C.): 7 days
Time until practically complete conversion into crystal form C ([1]; stored at 30° C.): 3 days
Time until practically complete conversion into crystal form C ([1]; stored at 35° C.): 2 days
Water content of the sample after storage ([2]; listed as crystal form A): 15.7 % by weight
Appearance of the sample after storage ([2]; one week at 25° C. over water): very ductile and sticky
Hygroscopicity (in words) ([2]; one week at 25° C. over water): hygroscopic

COc1cc(OC)nc(NC(=O)[N-]S(=O)(=O)c2cc(NC=O)ccc2C(=O)N(C)C)n1.[Na+] [Crystal form B, monosodium salt of foramsulfuron]
Methanol content in the product obtained [3]: 0.004 % by weight
Water content of the sample after storage [2]: 0.4 % by weight
Appearance of the sample after storage ([2]; one week at 25° C. over water): still crystalline and powdery
Hygroscopicity (in words) ([4]; conclusion from sorption/desorption at 25° C.): not hygroscopic; also recorded: non-hygroscopic
Desorption (% by weight) ([4]; relative humidity 10.0%): 0.846 % by weight
Sorption (% by weight) ([4]; relative humidity 10.0%): 0.100 % by weight
Desorption (% by weight) ([4]; relative humidity 20.0%): 1.227 % by weight
Sorption (% by weight) ([4]; relative humidity 20.0%): 0.201 % by weight
Desorption (% by weight) ([4]; relative humidity 30.0%): 1.495 % by weight
Sorption (% by weight) ([4]; relative humidity 30.0%): 0.313 % by weight
Desorption (% by weight) ([4]; relative humidity 40.0%): 1.760 % by weight
Sorption (% by weight) ([4]; relative humidity 40.0%): 0.444 % by weight
Desorption (% by weight) ([4]; relative humidity 50.0%): 2.086 % by weight
Sorption (% by weight) ([4]; relative humidity 50.0%): 0.566 % by weight
Desorption (% by weight) ([4]; relative humidity 60.0%): 2.269 % by weight
Sorption (% by weight) ([4]; relative humidity 60.0%): 0.684 % by weight
Desorption (% by weight) ([4]; relative humidity 70.0%): 2.485 % by weight
Sorption (% by weight) ([4]; relative humidity 70.0%): 0.864 % by weight
Desorption (% by weight) ([4]; relative humidity 80.0%): 3.016 % by weight
Sorption (% by weight) ([4]; relative humidity 80.0%): 1.085 % by weight
Desorption (% by weight) ([4]; relative humidity 90.0%): 5.151 % by weight
Sorption (% by weight) ([4]; relative humidity 90.0%): 2.335 % by weight

COc1cc(OC)nc(NC(=O)NS(=O)(=O)c2cc(NC=O)ccc2C(=O)N(C)C)n1.[Na] [Crystal form C]
Water content of the sample after storage ([2]; listed as crystal form C): 21.3 % by weight
